This note sets out measurements from paper PMC6560211, “ApoAI-derived peptide increases glucose tolerance and prevents formation of atherosclerosis in mice” (Diabetologia, 2019).

This test has as its system Akt and AMPK signalling. In words: Tissue signalling by western blotting. Particulars: soleus muscle, heart muscle and adipose depots in lean mice; 12 mg/kg i.p., 2.5 h; n=4. It is filed as in vivo, mouse. The method, then: Soleus, heart and fat samples were collected from male C57BL/6NTac mice (Taconic, Ejby, Denmark) after 12 h fasting at 9 weeks of age. The effect of RG54 on Akt and AMPK signalling in vivo was then measured by western blot using the following antibodies (all sourced from Cell Signaling Technology/Bionordika, Stockholm, Sweden): pAKT (#4060, 1:2000), Akt (#4691, 1:1000), pAMPK (#2535, 1:1000), AMPK (#2603, 1:1000) and GAPDH (#D16H11, 1:1000). All antibodies were diluted in Tris-buffered saline (154 mmol/l NaCl) with Tween-20 containing 1% BSA and were validated by the manufacturer. See ESM Methods for more details.
In vitro: glucose uptake measurements
C2C12 […] myoblasts (ATCC #CRL-1772) were grown in DMEM (ATCC) supplemented with 10% FBS (Sigma) and 1% Penicillin, Streptomycin and Amphotericin B (Invitrogen) and maintained at 37°C and 5% CO2. Differentiation to myotubes was achieved by switching from growth media to 2% FBS DMEM for 7 days. […]
No statistical methods were used to predetermine sample sizes, but sample sizes are similar to those reported in the field. […] Group allocation was blinded for all mouse work when possible (such as collection of blood or tissues, sample quantification and analysis, and atherosclerosis scoring). […]
protein concentrations were analysed with Bradford protein assay. […]

No end group written: not given here.

“Ac-AEYHAKATEHLSTLSEKAKPALEDLRQGLLPVLESFKVSFLSALEEYTKKLNTQ [RG54]”: the “AMPK and Akt phosphorylation” value is “minor to no changes”.
